This is an account of results in US20040092491A1, “Method of treating sepsis-induced ARDS” (The Research Foundation of State University of New York, priority 2002, published 2004).

“Also recorded” adds a separate entry of the source.

For one experiment, the system named is lung tissue. Nature of the experiment: Rat CLP model: lung histology. It counts as in vivo, Sprague-Dawley rats. Here is the method:
Surgical Procedure: Male Sprague-Dawley rats weighing between 250-300 g were acclimatized to the laboratory environment for one week prior to surgery. Free access to food and water was available for this time period. Rats were anesthetized with intraperitoneal (IP) Ketamine (90 mg/kg)/Xylazine (10 mg/kg ). Sepsis was produced using a modification of the cecal ligation and puncture (CLP) technique described by Chaudry et al. After the abdominal fur was shaved, a 2 cm midline incision was made through the skin and peritoneum. The cecum was identified and withdrawn through the incision. The avascular portion of the mesentery was sharply incised and the cecum was ligated just below the ileocecal valve with a 3-0 silk suture, so that intestinal continuity was maintained. Using an 18 gauge needle, the cecum was perforated in two locations on the antimesenteric surface and was gently compressed until feces were extruded to ensure patency of the holes. The bowel was then returned to the abdomen and the incision was closed in 2 layers using 3-0 Prolene™ for the muscle and 2-0 silk for the skin. Each rat received 10 cc physiological saline subcutaneously immediately after the procedure and at 12 and 24 hours post-surgery. The rats were allowed to recover with water and food provided ad libitum throughout the remainder of the study.
(§1) Experimental Protocol: Rats were randomly divided into 5 groups: GROUP 1) Sham CLP+2% solution of carboxymethylcellulose (CMC; vehicle for COL-3) in saline-midline laparotomy with cecum exposed and mesentery sharply incised plus oral gavage at the time of surgery with CMC (n=6); GROUP 2) Sham CLP+COL-3 (Collagenex Pharmaceutical, Newtown, Pa.)-midline laparotomy with cecum exposed and mesentery sharply incised plus oral gavage at the time of surgery with COL-3 (30 mg/kg, n=6); GROUP 3) CLP+CMC-midline laparotomy with CLP plus oral gavage at time of surgery with CMC (n=10); GROUP 4) CLP+COL-3 single dose [SD]-midline laparotomy with CLP plus oral gavage at the time of surgery with COL-3 (30 mg/kg, n=9); GROUP 5) CLP+COL-3 multiple dose [MD]-midline laparotomy with CLP plus oral gavage at the time of surgery and at 24 hours post CLP with COL-3 (30 mg/kg each administration for a total dose of 60 mg/kg, n=15). Rats were followed for 168 hours (7 days) with survival defined as hours post-CLP and survival time of each rat recorded. Rats were sacrificed at 168 hours or immediately following death. At necropsy, the left lung was excised and its bronchus cannulated. The lung was inflated to a pressure of 4 cmH2O with 10% formalin. The cannula was clamped and the lung stored in formalin at room temperature for 24 hours. The tissue was blocked in paraffin and serial sections made for staining with hematoxylin and eosin. Additionally, the remaining paraffin section of fixed lung was used for immunohistochemical determination of MMP-2 and MMP-9.
Histology: The lung tissue in each slide preparation was evaluated without knowledge of the treatment group from which it came. The slides were reviewed at low magnification for an overview to exclude sections containing bronchi, connective tissue, large blood vessels, and areas of confluent atelectasis, so that only regions reflecting the degree and stage of parenchymal injury would be evaluated. The areas of the slides which were not excluded were assessed at high magnification (400×) in the following manner. Five high power fields (HPF) were randomly sampled. […] Specifically, alveolar wall thickening, defined as greater than two cell layers thick, was graded as “0” (absent) or “1” (present) in each field. Intra-alveolar edema fluid, defined as homogenous or fibrillar proteinaceous staining within the alveoli, was graded as “0” (absent) or “1” (present) in each field. A total score/5HPF for alveolar wall thickening and intra-alveolar edema fluid was recorded for each animal. […]

The test system of another experiment is MMP-2. Kind of experiment: Rat CLP model: lung tissue MMP-2 level by immunohistochemistry. It counts as in vivo, Sprague-Dawley rats. On the procedure: as §1
Lung tissue MMP-2 and MMP-9 levels: The levels of alveolar tissue MMP-2 and MMP-9 was assessed by immunohistochemical analysis as described elsewhere. Briefly, four micrometer formalin fixed paraffin sections were treated with xylene to remove paraffin and hydrated. The paraffin sections were treated with 0.4% pepsin for 45 minutes at +37° C. For immunostaining VECTASTAIN™ Rabbit ABC Elite Kit (Vector Laboratories, Burlingame, Calif.) was used according to manufactures instructions. […]

A further experiment has as its system pulmonary edema. Kind of experiment: Rat CLP model: lung water (W/D weight ratio). In kind it is in vivo, Sprague-Dawley rats. Here is the method: as §1
Lung Water: Representative tissue samples from the right lung were sharply dissected free of nonparenchymal tissue. Samples were placed in a dish and weighed, dried in an oven at 65° C. for 24 h and weighed again. This was repeated until there was no weight change over a 24-h period at which time the samples were determined to be dry. Lung water was expressed as a wet to dry weight ratio (W/D).

Experiment [1] is described as follows: Porcine SMA+FC model: BALF protein concentration. More on the design: species or system pigs. To be noted: pig, in vivo.
Text: (§2) In addition, the protocol included a 3-day termination period, due to the severity of the ARDS associated with this model and the desire to obtain clinically relevant end-point data on all animals.
The next experiment addresses T1, MMP-9 (Sus scrofa, UniProt A0A287AZD5).
T1 construct: from tissue; host or cells: pig bronchoalveolar lavage fluid (BALF)
Kind of experiment: Porcine SMA+FC model: MMP-9 in BALF. The arrangement: species or system pigs. To be noted: pig, in vivo.

A further experiment concerns IL-8. Nature of the experiment: Porcine SMA+FC model: IL-8 concentration in BALF. The arrangement: species or system pigs. To be noted: pig, in vivo.
In another experiment the test system is Interleukin-1. Kind of experiment: Porcine SMA+FC model: Interleukin-1 concentration in BALF. In kind it is in vivo, pigs. The settings on record: between groups.

T1 sequence (A0A287AZD5 19-708): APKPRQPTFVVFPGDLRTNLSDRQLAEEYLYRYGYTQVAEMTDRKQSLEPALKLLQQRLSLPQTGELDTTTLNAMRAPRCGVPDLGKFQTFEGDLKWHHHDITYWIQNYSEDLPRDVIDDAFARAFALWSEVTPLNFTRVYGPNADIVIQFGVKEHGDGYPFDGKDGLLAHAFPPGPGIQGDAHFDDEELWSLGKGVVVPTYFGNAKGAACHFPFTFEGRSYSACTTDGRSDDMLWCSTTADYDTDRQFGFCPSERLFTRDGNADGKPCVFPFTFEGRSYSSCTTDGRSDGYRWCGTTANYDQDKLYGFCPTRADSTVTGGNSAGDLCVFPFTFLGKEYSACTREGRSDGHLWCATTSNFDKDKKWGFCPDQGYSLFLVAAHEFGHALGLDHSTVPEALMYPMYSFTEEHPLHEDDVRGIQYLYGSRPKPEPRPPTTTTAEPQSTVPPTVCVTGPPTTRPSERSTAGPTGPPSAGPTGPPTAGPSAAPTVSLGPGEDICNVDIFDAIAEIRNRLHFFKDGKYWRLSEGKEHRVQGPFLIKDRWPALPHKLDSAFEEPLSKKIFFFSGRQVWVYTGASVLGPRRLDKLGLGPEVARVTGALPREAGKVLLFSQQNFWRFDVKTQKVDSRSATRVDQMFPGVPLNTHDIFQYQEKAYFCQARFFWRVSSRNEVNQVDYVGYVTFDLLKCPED
Text for IL-8: (§3) A sepsis-induced ARDS porcine model was developed. […] In addition, the protocol included a 3-day termination period, due to the severity of the ARDS associated with this model and the desire to obtain clinically relevant end-point data on all animals.
Text for Interleukin-1: as §2
Text for MMP-9: as §3

On to `NC(=O)C1=C(O)C[C@@H]2C[C@@H]3Cc4cccc(O)c4C(=O)C3=C(O)[C@]2(O)C1=O` [COL-3, 6-demethyl-6-deoxy-4-de(dimethylamino)tetracycline], for which the “Number of neutrophils sequestered in the lung” value in the experiment on lung tissue (CLP+COL-3 (MD) vs CLP+CMC) and in the experiment on lung tissue (CLP+COL-3 (SD) vs CLP+CMC) was “no significant differences” in each case. The “Number of thickened alveolar walls” value in the experiment with lung tissue (CLP+COL-3 (MD) vs CLP+CMC) and with lung tissue (CLP+COL-3 (SD) vs CLP+CMC) was “significantly reduced” throughout. Further, the Intra-alveolar edema fluid result with lung tissue (CLP+COL-3 (MD), second dose, vs CLP+CMC) was “significant reduction”; with lung tissue (CLP+COL-3 (SD) vs CLP+CMC) it was “reduced in the CLP+COL-3 (SD) group as compared to the CLP+CMC group, but was not statistically significant”. Also, the “Lung tissue level of MMP-2” value was “further reduction” with MMP-2 (CLP+COL-3 (MD) vs CLP+CMC and CLP+COL-3 (SD)); “significantly reduced” in the experiment with MMP-2 (CLP+COL-3 (SD) vs CLP+CMC). For the same compound, in the experiment with MMP-2 (COL-3 administration, dose dependent fashion, vs CLP+CMC), the “Alveolar tissue level of MMP-2” value is recorded as “significantly reduced”. The “Lung water (W/D weight ratio)” value in the experiment on pulmonary edema (CLP+COL-3 (MD), second dose at 24 hours post CLP) is reported as “reduced edema to Sham CLP levels; also recorded: further reduced”; in the experiment on pulmonary edema (CLP+COL-3 (SD) vs CLP+CMC) it was “significantly reduced”. Also, in the experiment on pulmonary edema (COL-3 administration, dose dependent manner, vs CLP+CMC), the “Lung water or edema” value is given as “significantly reduced”. Also, the “Decrease in bronchoalveolarlavage fluid (BALF) protein concentration” value in experiment [1] was found to be 51%. For the same compound, the “MMP-9 in BALF” value at MMP-9 was “inhibited”. Also, in the experiment with IL-8, the “Increase in IL-8 concentration in BALF” value is “blocked the increase”. Besides, the Interleukin-1 concentration entry in the experiment on Interleukin-1 is “not significantly different”.
